Data published in article PMC5394417, “Investigating the molecular mechanism of positive and negative allosteric modulators in the calcium-sensing receptor dimer” (Scientific Reports, 2017).

Target: T1, HA-F684A CaSR mutant (Rattus norvegicus, UniProt P48442, F684A)
T1 construct: mGluR5 signal peptide (N); expressed in transfected cells; host or cells: HEK293T
T1 sequence (P48442 20-1079 F684A): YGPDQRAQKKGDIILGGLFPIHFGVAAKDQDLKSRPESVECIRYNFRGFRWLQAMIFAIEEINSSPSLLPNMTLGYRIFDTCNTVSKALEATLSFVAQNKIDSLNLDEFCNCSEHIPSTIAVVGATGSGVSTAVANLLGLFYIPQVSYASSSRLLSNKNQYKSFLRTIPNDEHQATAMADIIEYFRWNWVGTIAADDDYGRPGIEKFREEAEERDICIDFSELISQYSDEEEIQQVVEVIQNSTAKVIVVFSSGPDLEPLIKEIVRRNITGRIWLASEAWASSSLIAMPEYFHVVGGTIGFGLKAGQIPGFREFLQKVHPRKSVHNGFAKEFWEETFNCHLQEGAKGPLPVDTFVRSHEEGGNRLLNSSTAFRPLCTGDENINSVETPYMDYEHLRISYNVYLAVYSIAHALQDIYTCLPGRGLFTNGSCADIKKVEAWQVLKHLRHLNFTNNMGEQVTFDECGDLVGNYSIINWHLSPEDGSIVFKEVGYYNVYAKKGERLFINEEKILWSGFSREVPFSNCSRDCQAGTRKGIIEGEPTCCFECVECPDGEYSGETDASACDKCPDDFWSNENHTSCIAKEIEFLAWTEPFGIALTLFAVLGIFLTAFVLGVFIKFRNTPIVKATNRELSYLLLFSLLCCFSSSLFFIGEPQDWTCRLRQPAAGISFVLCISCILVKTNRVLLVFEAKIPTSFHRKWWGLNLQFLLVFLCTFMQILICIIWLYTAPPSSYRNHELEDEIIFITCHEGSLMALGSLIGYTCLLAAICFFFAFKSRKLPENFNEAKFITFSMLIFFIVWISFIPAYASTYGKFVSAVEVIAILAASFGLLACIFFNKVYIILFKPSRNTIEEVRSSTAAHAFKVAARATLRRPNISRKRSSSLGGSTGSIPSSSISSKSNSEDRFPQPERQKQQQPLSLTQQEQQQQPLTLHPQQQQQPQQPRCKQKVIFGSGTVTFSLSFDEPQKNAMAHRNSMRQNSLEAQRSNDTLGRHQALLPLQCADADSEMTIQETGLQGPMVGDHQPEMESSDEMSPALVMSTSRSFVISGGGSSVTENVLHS
Experiment: IP-One assay, HEK293T transiently transfected
Assay type: cell-based

## [Ca+2] [Ca^2+]
Ca^2+ alone
  EC50: 6.6 mM
  pEC50 ± S.E.M.: 2.18 ± 0.01
Ca^2+ alone, normalized to maximum response of WT CaSR
  Max ± S.E.M.: 97 ± 3.4%
Ca^2+ with 1 μM NPS R-568
  EC50: 2.89 mM
  pEC50 ± S.E.M.: 2.54 ± 0.02
Ca^2+ with 1 μM NPS R-568, normalized to maximum response with Ca^2+ alone for the construct
  Max ± S.E.M.: 99 ± 11%
Ca^2+ with 5 μM NPS 2143
  EC50: 8.17 mM
  pEC50 ± S.E.M.: 2.09 ± 0.004
Ca^2+ with 5 μM NPS 2143, normalized to maximum response with Ca^2+ alone for the construct
  Max ± S.E.M.: 70 ± 8.1%
